Reference: patent US7972785B2, “Biomarkers for liver fibrotic injury” (Industrial Technology Research Institute (ITRI), priority 2006, dated 2011)

Test system: rat liver transcripts
Test: Affymetrix Rat Genome U34A microarray gene expression profiling of liver of DMN-treated rats
Assay type: in vivo
Description: Protocols and reagents for hybridization, washing and staining followed Affymetrix's instructions, which may be retrieved from Affymetrix's company website. Labeled cRNA was hybridized to the Affymetrix GeneChip Test 3 Array to verify the quality prior to hybridization to the Affymetrix Rat Genome U34A Array.
The microarray images were transformed into text files containing intensity information using GENECHIP® Operating Software (GCOS) developed by ® Affymetrix. The microarray datasets were then analyzed using GENESPRING® 7.2 software (Silicon Genetics, Redwood City, Calif., U.S.A.)
Over the six week time course of the experiment, the liver tissues of 12 control animals and 12 DMN-treated rats (2 rats for each time point) were selected to perform microarray experiments. Before any statistical analyses were applied to the microarray data, reproducibility was assessed. Genes were selected as present when they were assigned a present call according to the perfect match (PM)/mismatch (MM) algorithm of Affymetrix in all gene chips (28). Of the 8799 probe sets analyzed, overall expression patterns for 2385 transcripts on the chips were reported to be present (P<0.05). […] Scattered graphs of expression levels of the 2385 transcripts represented on the microarray were compared with each other. The relationship between the experimental chips in the microarray analysis was analyzed by linear regression. Overall, there was no statistical difference, with 3.2% of transcripts deviating more than 2-fold. To investigate the time course variability, the reliable signals of these 2385 probe sets between the first and sixth week of controls, were calculated. Again, there was no statistical difference, with 4.6% of transcripts deviating more than 2-fold. In contrast, a significant scatter was found between controls and DMN-treated groups, with 28.7% of transcripts deviating more than 2-fold. […]

CN(C)N=O [DMN, Dimethylnitrosamine]
transcripts deviating more than 2-fold between controls and DMN-treated groups (2385 present transcripts): 28.7% | Timp1 expression elevation in DMN treated rats (microarray): more than twenty | CD63 expression (microarray, after DMN treatment): up-regulated
